According to ChEMBL document CHEMBL3351825, “Polyoxypregnane steroids from the stems of Marsdenia tenacissima” (J Nat Prod, 2014):
Activity calls are given as the source filed them. The rule behind the calls is not given here.

Legend:
[1] = Reversal of P-gp-mediated resistance to doxorubicin in human SW620/AD300 cells assessed as reduction in doxorubin IC50 at 10 uM after 72 hrs by SRB assay; assay type: cell-based; settings: SW620/AD300, 72 h
[2] = Cytotoxicity against human H460 cells after 72 hrs by SRB assay; settings: NCI-H460, 72 h
[3] = Cytotoxicity against human H460/Vbl cells after 72 hrs by SRB assay
NCI-H292 [4] = assay: Cytotoxicity against human NCI-H292 cells after 72 hrs by SRB assay; assay type: functional, cell-based; settings: NCI-H292, 72 h
[5] = Reversal of P-gp-mediated resistance to doxorubicin in human SW620 cells assessed as reduction in doxorubin IC50 at 400 nM after 72 hrs by SRB assay; assay type: cell-based; settings: SW-620, 72 h
SW-620 [6] = assay: Reversal of P-gp-mediated resistance assessed as ratio of doxorubicin IC50 for human SW620/AD300 cells to doxorubicin IC50 for human SW620 cells in presence of compound at 400 nM; assay type: cell-based
[7] = Reversal of P-gp-mediated resistance to doxorubicin in human SW620/AD300 cells assessed as reduction in doxorubin IC50 at 400 nM after 72 hrs by SRB assay; assay type: cell-based; settings: SW620/AD300, 72 h
NCI-H460 [8] = assay: Induction of apoptosis in human NCI-H460 cells at 10 uM after 24 hrs using annexin V by flow cytometry in presence of 1 uM gefitinib; assay type: functional, cell-based
NCI-H292 [9] = assay: Induction of apoptosis in human NCI-H292 cells at 10 uM after 24 hrs using annexin V by flow cytometry in presence of 1 uM gefitinib; assay type: functional, cell-based
[10] = target: T1, ATP-dependent translocase ABCB1 (Homo sapiens, UniProt P08183); assay: Inhibition of P-gp in human SW620/AD300 cells assessed as reduction in rhodamine 123 efflux by flow cytometry; assay type: cell-based
[11] = Reversal of P-gp-mediated resistance to doxorubicin in human SW620/AD300 cells assessed as reduction in doxorubin IC50 at 2 uM after 72 hrs by SRB assay; assay type: cell-based; settings: SW620/AD300, 72 h
[12] = target: T1, ATP-dependent translocase ABCB1; assay: Inhibition of P-gp in human SW620/AD300 cells assessed as reduction in rhodamine 123 efflux at 50 uM by flow cytometry; assay type: cell-based; settings: sw620/ad300, 50 µM
NCI-H460 [13] = assay: Induction of apoptosis in human NCI-H460/Vbl cells at 10 uM after 24 hrs using annexin V by flow cytometry in presence of 1 uM gefitinib; assay type: functional, cell-based
[14] = Reversal of P-gp-mediated resistance to cisplatin in human SW620 cells assessed as reduction in doxorubin IC50 at 2 uM after 72 hrs by SRB assay; assay type: cell-based; settings: SW-620, 72 h
[15] = Reversal of P-gp-mediated resistance to cisplatin in human SW620 cells assessed as reduction in doxorubin IC50 at 10 uM after 72 hrs by SRB assay; assay type: cell-based; settings: SW-620, 72 h
[16] = Reversal of P-gp-mediated resistance to cisplatin in human SW620/AD300 cells assessed as reduction in doxorubin IC50 at 10 uM after 72 hrs by SRB assay; assay type: cell-based; settings: SW620/AD300, 72 h
NCI-H460 [17] = assay: Induction of apoptosis in human NCI-H460 cells at 10 uM after 24 hrs using annexin V by flow cytometry; assay type: functional, cell-based
[18] = Reversal of P-gp-mediated resistance to doxorubicin in human SW620 cells assessed as reduction in doxorubin IC50 at 2 uM after 72 hrs by SRB assay; assay type: cell-based; settings: SW-620, 72 h
NCI-H460 [19] = assay: Induction of apoptosis in human NCI-H460/Vbl cells at 10 uM after 24 hrs using annexin V by flow cytometry; assay type: functional, cell-based
[20] = Reversal of P-gp-mediated resistance to cisplatin in human SW620/AD300 cells assessed as reduction in doxorubin IC50 at 2 uM after 72 hrs by SRB assay; assay type: cell-based; settings: SW620/AD300, 72 h
NCI-H292 [21] = assay: Induction of apoptosis in human NCI-H292 cells at 10 uM after 24 hrs using annexin V by flow cytometry; assay type: functional, cell-based
cells = settings: Homo sapiens, SW620/AD300, 72 h
Description: Growth inhibition of human SW620/AD300 cells after 72 hrs by SRB assay

SW-620 [22] = assay: cells; settings: Homo sapiens, SW-620, 72 h
Description: Growth inhibition of human SW620 cells after 72 hrs by SRB assay

SW-620 [23] = assay: Ratio of IC50 for human SW620/AD300 cells to IC50 for human SW620 cells; assay type: functional

T1 sequence (P08183 whole entry): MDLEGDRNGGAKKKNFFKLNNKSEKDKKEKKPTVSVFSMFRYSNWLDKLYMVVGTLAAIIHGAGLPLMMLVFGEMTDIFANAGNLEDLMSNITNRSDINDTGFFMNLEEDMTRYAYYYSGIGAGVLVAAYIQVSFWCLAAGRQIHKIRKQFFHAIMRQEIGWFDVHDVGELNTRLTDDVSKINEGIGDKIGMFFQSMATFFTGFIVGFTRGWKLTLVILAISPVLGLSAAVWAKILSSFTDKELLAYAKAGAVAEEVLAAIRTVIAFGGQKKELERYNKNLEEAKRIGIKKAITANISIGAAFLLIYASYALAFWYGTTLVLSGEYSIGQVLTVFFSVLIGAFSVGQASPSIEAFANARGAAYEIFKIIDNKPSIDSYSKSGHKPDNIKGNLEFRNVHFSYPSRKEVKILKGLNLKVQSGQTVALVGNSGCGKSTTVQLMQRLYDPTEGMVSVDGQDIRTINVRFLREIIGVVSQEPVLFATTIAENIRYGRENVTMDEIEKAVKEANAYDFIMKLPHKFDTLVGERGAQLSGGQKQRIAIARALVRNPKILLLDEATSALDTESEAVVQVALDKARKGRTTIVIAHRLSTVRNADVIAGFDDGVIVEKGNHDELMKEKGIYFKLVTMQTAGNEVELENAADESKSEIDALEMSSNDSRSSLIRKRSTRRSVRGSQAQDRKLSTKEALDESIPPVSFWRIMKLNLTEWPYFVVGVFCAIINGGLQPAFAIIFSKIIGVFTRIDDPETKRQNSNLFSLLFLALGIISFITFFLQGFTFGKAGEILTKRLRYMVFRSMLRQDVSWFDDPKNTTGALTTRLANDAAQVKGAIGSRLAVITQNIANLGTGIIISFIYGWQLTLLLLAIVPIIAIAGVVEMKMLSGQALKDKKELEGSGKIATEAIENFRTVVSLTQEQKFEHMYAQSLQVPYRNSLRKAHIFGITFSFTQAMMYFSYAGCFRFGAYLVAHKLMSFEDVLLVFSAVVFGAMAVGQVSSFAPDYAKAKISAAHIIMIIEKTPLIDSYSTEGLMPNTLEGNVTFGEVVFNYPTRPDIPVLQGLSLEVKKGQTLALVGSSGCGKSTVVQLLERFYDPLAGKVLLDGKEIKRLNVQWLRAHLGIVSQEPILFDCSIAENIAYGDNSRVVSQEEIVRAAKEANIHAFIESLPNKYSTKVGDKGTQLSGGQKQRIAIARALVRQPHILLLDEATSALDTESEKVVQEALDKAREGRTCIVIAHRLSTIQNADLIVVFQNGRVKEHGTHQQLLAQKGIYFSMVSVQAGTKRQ

CO[C@H]1[C@@H](O)[C@H](O[C@@H]2[C@@H](C)O[C@@H](O[C@H]3CC[C@@]4(C)[C@@H](CC[C@@]56O[C@@]57CC[C@H](C(C)=O)[C@@]7(C)[C@H](OC(C)=O)[C@@H](OC(=O)c5ccccc5)[C@H]46)C3)C[C@H]2OC)O[C@H](C)[C@H]1O[C@@H]1O[C@H](CO)[C@@H](O[C@@H]2O[C@H](CO)[C@@H](O)[C@H](O)[C@H]2O)[C@H](O)[C@H]1O
IC50 [1]: 26.8 µM

CO[C@H]1[C@@H](O)[C@H](O[C@@H]2[C@@H](C)O[C@@H](O[C@H]3CC[C@@]4(C)[C@@H](CC[C@@]56O[C@@]57CC[C@H](C(C)=O)[C@@]7(C)[C@H](O)[C@@H](OC(C)=O)[C@H]46)C3)C[C@H]2OC)O[C@H](C)[C@H]1O
IC50 [1]: 23.4 µM

C#Cc1cccc(Nc2ncnc3cc(OCCOC)c(OCCOC)cc23)c1 [ERLOTINIB]
IC50 [2]: 9.5 µM | IC50 [3]: 21.5 µM | IC50 (NCI-H292 [4]): 1 µM

C/C=C(\C)C(=O)O[C@@H]1[C@@H](O)[C@]2(C)[C@@H](C(C)=O)CC[C@@]23O[C@]32CC[C@H]3C[C@@H](O[C@H]4C[C@@H](OC)[C@H](O[C@@H]5O[C@H](C)[C@@H](O)[C@@H](OC)[C@H]5O)[C@@H](C)O4)CC[C@]3(C)[C@@H]12
IC50 [1]: 25.6 µM

C/C=C/C[C@@H](C)C(=O)[C@H]1C(=O)N[C@@H](C(C)C)C(=O)N(C)CC(=O)N(C)[C@@H](CC(C)C)C(=O)N[C@@H](C(C)C)C(=O)N(C)[C@@H](CC(C)C)C(=O)N[C@@H](C)C(=O)N[C@H](C)C(=O)N(C)[C@@H](CC(C)C)C(=O)N(C)[C@@H](CC(C)C)C(=O)N(C)[C@@H](C(C)C)C(=O)N1C [VALSPODAR]
IC50 [5]: 0.1 µM | Ratio IC50 (SW-620 [6]): 2 | IC50 [7]: 0.22 µM

C/C=C(\C)C(=O)O[C@@H]1[C@@H](O)[C@]2(C)[C@@H](C(C)=O)CC[C@@]23O[C@]32CC[C@H]3C[C@@H](O[C@H]4C[C@@H](OC)[C@H](O[C@@H]5O[C@H](C)[C@@H](O[C@@H]6O[C@H](CO)[C@@H](O)[C@H](O)[C@H]6O)[C@@H](OC)[C@H]5O)[C@@H](C)O4)CC[C@]3(C)[C@@H]12
IC50 [1]: 23.9 µM

CCC(C)C(=O)O[C@@H]1[C@@H](OC(C)=O)[C@]2(C)[C@@H](C(C)=O)CC[C@@]23O[C@]32CC[C@H]3CC(=O)CC[C@]3(C)[C@@H]12 (stereo not given in full)
Activity (NCI-H460 [8]): Active | Activity (NCI-H292 [9]): Active | inhibition (INH) [10]: Dose-dependent effect | IC50 [11]: 2.1 µM | inhibition (INH) [12]: Active | Activity (NCI-H460 [13]): Active | IC50 [14]: 11.5 µM | IC50 [15]: 9.4 µM | IC50 [1]: 0.85 µM | IC50 [16]: 10.2 µM | Activity (NCI-H460 [17]): inactive | IC50 [18]: 0.11 µM | Activity (NCI-H460 [19]): inactive | IC50 [20]: 12 µM | Activity (NCI-H292 [21]): inactive

CO[C@H]1[C@@H](O)[C@H](O[C@@H]2[C@@H](C)O[C@@H](O[C@H]3CC[C@@]4(C)[C@@H](CC[C@@]56O[C@@]57CC[C@H](C(C)=O)[C@@]7(C)[C@H](O)[C@@H](O)[C@H]46)C3)C[C@H]2OC)O[C@H](C)[C@H]1O[C@@H]1O[C@H](CO)[C@@H](O)[C@H](O)[C@H]1O
IC50 [1]: 24.8 µM

COc1cccc2c1C(=O)c1c(O)c3c(c(O)c1C2=O)C[C@@](O)(C(=O)CO)C[C@@H]3O[C@H]1C[C@H](N)[C@H](O)[C@H](C)O1 [DOXORUBICIN]
IC50 (cells): 28.2 µM | IC50 (SW-620 [22]): 0.17 µM | Ratio IC50 (SW-620 [23]): 166

CO[C@H]1[C@@H](O)[C@H](O[C@@H]2[C@@H](C)O[C@@H](O[C@H]3CC[C@@]4(C)[C@@H](CC[C@@]56O[C@@]57CC[C@H](C(C)=O)[C@@]7(C)[C@H](O)[C@@H](OC(=O)c5ccccc5)[C@H]46)C3)C[C@H]2OC)O[C@H](C)[C@H]1O
IC50 [1]: 23.4 µM
